In US7098241B2, “Thiophene hydroxamic acid derivatives” (Hoffmann-La Roche Inc., priority 2002, dated 2006):
Where two headings read alike, the source gives them in different places.

Assays:
[1] = tested on: HT-29 cells (human colon carcinoma cell line); assay: MTT anti-proliferation assay on HT-29 cells; format: cell-based; details: 384 well plates, 5 days, read-out: IC50 HT29 384
From the text: MTT (3-(4,5-dimethylthiazol-2-yl)-2,5-diphenyl tetrazolium bromide) is widely used for the quantitative determination of cytotoxic effects or in vitro chemosensitivity of tumor cells. The assay is based on the cleavage of the yellow tetrazolium salt (MTT) to purple formazan crystals by metabolic active cells. For details, see Rubinstein, L. V., et al., J. Natl. Cancer Inst. 82 (1990) 1113.
We proceeded as follows: HT-29 cells (human colon carcinoma cell line) were cultivated in RPMI 1640, 2.5% FCS, 2 mM glutamine, 100 u/ml penicillin, 100 ug/ml streptomycin. For the assay the cells were seeded in 384 well plates, 900 cells per well, in the same medium. At the next day, the compounds (dissolved 10 mM in DMSO) were added in various concentrations ranging from 30 uM to 1.5 nM. After 5 days, the MTT assay was done mainly according to the instructions of the manufacturer (Cell proliferation kit I, MTT, from Roche Molecular Biochemicals). In brief: MTT labeling reagent was added to a final concentration of 0.5 mg/ml, added and incubated for 4 hrs at 37° C., 5% CO2. During this incubation time purple formazan crystals are formed. After addition of the solubilization solution (20% SDS in 0.02 M HCl) the plates were incubated overnight at 37° C., 5% CO2. After careful mixing, the plates were measured in Victor 2 (scanning multiwell spectrophotometer, Wallac) at 550 nm.
A decrease in number of living cells results in a decrease in the total metabolic activity in the sample. The decrease directly correlates to the amount of purple color resulting from the solubilization of the purple formazan crystals. Determination of IC50 was done using XL-fit.

recombinant HDAC-1 = target: T1, recombinant HDAC-1 (Homo sapiens, UniProt Q13547); assay: HDAC biochemical quench assay; details: recombinant HDAC-1 purified from HEK 293 cells, 1 uM peptide substrate, 90 min at room temperature
T1 construct: made in house; host or cells: HEK 293 cells
T1 sequence (Q13547 whole entry, species assumed): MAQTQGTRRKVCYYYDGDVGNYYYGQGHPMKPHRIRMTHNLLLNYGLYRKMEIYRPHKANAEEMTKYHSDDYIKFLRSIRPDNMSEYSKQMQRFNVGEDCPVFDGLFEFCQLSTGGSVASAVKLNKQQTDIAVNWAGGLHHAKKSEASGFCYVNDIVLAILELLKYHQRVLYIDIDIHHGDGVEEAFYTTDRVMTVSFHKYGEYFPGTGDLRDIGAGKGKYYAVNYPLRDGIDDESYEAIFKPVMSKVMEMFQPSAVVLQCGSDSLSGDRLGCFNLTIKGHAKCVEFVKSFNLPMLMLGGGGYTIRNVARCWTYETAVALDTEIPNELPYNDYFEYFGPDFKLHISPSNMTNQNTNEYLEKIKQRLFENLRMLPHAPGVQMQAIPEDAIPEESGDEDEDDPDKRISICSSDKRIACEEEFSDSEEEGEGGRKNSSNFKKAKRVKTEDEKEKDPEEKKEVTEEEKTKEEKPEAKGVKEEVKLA
From the text: The function of histone deacetylase (HDAC) is the deacetylation of lysines in e.g. histone H4. A peptide of 17 amino acids derived from histone H4 was labeled with TAMRA at the C-terminus and QSY-7 at the N-terminus and was used as a substrate (TAMRA-first17 aa of histone H4-QSY7). Following deacetylation by HDAC, the enzyme Lys C is able to cleave the peptide after lysine. […] Inhibition of HDAC by compounds results in low signals because Lys C could not cleave the substrate and the quench effect persists.
For dose response curves, 10 concentrations were diluted 1:3 starting at 30 uM. 10 ul compound dilution were put into each well of a 384 well plate. 10 ul HDAC were added (recombinant HDAC-1 purified from HEK 293 cells; enzyme activity has to be assessed for each preparation). 10 ul peptide substrate was added (1 uM final concentration, derived from 1 mM stock solution diluted 1:1000 in test buffer). After 90 min incubation at room temperature, the reaction was stopped by addition of 20 ul test buffer including 3 ug/ml Lys C and 0.075% SDS. After overnight incubation the fluorescence signal of TAMRA was measured (Victor 2 from Wallac, absorption 544 nm, emission 590 nm). The O.D. of DMSO-treated control wells is 100%, the % inhibition of compound treated wells is calculated in relation to 100%. Based on 10 concentrations a IC50 curve is generated by using XL.fit3.
Test buffer used: a mixture of 10 mM Hepes pH8, 10 mM NaCl, 10% Glycerol, 0.005% Triton X100, 0.1 mM EDTA, 0.1 mM TCEP. As plates were used 384 well plates (black, Greiner, 781077).

| SMILES | IC50 ([1]; Homo sapiens, 120 h) | IC50 (recombinant HDAC-1) | IC50 [1] |
| --- | --- | --- | --- |
| CC[C@@H](NC(=O)c1ccc(C(=O)NO)s1)c1ccccc1 [Example 2g, (R)-thiophene-2,5-dicarboxylic acid 2-hydroxyamide 5-[(1-phenyl-propyl)-amide]] | 60 nM | 1.18 nM |  |
| COc1ccc([C@@H](C)NC(=O)c2ccc(C(=O)NO)s2)cc1 [Example 2i, (R)-thiophene-2,5-dicarboxylic acid 2-hydroxyamide 5-{[1-(4-methoxy-phenyl)-ethyl]-amide}] | 50 nM | 1.79 nM |  |
| C[C@@H](NC(=O)c1ccc(C(=O)NO)s1)c1ccc(C(C)(C)C)cc1 [Example 8e, (R)-thiophene-2,5-dicarboxylic acid 2-{[1-(4-tert-butyl-phenyl)-ethyl]-amide}5-hydroxyamide] | 10 nM | 1.08 nM |  |
| O=C(NO)c1ccc(C(=O)N[C@@H](CN2CCOCC2)c2ccccc2)s1 [Example 8c, (R)-thiophene-2,5-dicarboxylic acid 2-hydroxyamide 5-[(2-morpholin-4-yl-1-phenyl-ethyl)-amide]] | 630 nM | 4.27 nM |  |
| C[C@H](NC(=O)c1ccc(C(=O)NO)s1)c1ccc2ccccc2c1 [Example 4f, (S)-thiophene-2,5-dicarboxylic acid 2-hydroxyamide 5-[(1-naphthalen-2-yl-ethyl)-amide]] |  |  | 920 nM |
| C[C@H](NC(=O)c1ccc(C(=O)NO)s1)c1ccc(Cl)cc1 [Example 4c, (S)-thiophene-2,5-dicarboxylic acid 2-{[1-(4-chloro-phenyl)-ethyl]-amide}5-hydroxyamide] |  |  | 840 nM |
| C[C@@H](NC(=O)c1ccc(C(=O)NO)s1)c1cccc2ccccc12 [Example 2e, (R)-thiophene-2,5-dicarboxylic acid 2-hydroxyamide 5-[(1-naphthalen-1-yl-ethyl)-amide]] | 40 nM | 1.73 nM |  |
| Cc1ccc([C@@H](C)NC(=O)c2ccc(C(=O)NO)s2)cc1 [Example 2a, (R)-thiophene-2,5-dicarboxylic acid 2-hydroxyamide 5-[(1-p-tolyl-ethyl)-amide]] | 190 nM | 3.41 nM |  |
| C[C@H](NC(=O)c1ccc(C(=O)NO)s1)c1ccccc1 [Example 4a, (S)-thiophene-2,5-dicarboxylic acid 2-hydroxyamide 5-[(1-phenyl-ethyl)-amide]] |  |  | 840 nM |
| C[C@@H](NC(=O)c1ccc(C(=O)NO)s1)c1ccc(F)cc1 [Example 2b, (R)-thiophene-2,5-dicarboxylic acid 2-{[1-(4-fluoro-phenyl)-ethyl]-amide}5-hydroxyamide] | 170 nM | 4.98 nM |  |
| O=C(NO)c1ccc(C(=O)N[C@H]2CCCc3ccccc32)s1 [Example 4n, (S)-thiophene-2,5-dicarboxylic acid 2-hydroxyamide 5-[(1,2,3,4-tetrahydro-naphthalen-1-yl)-amide]] | 770 nM | 0.8 nM |  |
| COc1cccc([C@@H](C)NC(=O)c2ccc(C(=O)NO)s2)c1 [Example 2h, (R)-thiophene-2,5-dicarboxylic acid 2-hydroxyamide 5-{[1-(3-methoxy-phenyl)-ethyl]-amide}] | 70 nM | 1.31 nM |  |
| O=C(NO)c1ccc(C(=O)N[C@@H](Cc2ccccc2)c2ccccc2)s1 [Example 10f, (S)-thiophene-2,5-dicarboxylic acid 2-[(1,2-diphenyl-ethyl)-amide]5-hydroxyamide] | 40 nM | 0.58 nM |  |
| O=C(NO)c1ccc(C(=O)N[C@H](CN2CCOCC2)c2ccccc2)s1 [Example 10c, (S)-thiophene-2,5-dicarboxylic acid 2-hydroxyamide 5-[(2-morpholin-4-yl-1-phenyl-ethyl)-amide]] |  | 1.94 nM |  |

Second part, the compound after the results:

| IC50 ([1]; Homo sapiens, 120 h) | IC50 (recombinant HDAC-1) | IC50 [1] | SMILES |
| --- | --- | --- | --- |
| 10 nM | 4.97 nM |  | C[C@@H](NC(=O)c1ccc(C(=O)NO)s1)c1ccc2ccccc2c1 [Example 2f, (R)-thiophene-2,5-dicarboxylic acid 2-hydroxyamide 5-[(1-naphthalen-2-yl-ethyl)-amide]] |
|  | 1.79 nM |  | COc1cccc([C@H](C)NC(=O)c2ccc(C(=O)NO)s2)c1 [Example 4h, (S)-thiophene-2,5-dicarboxylic acid 2-hydroxyamide 5-{[1-(3-methoxy-phenyl)-ethyl]-amide}] |
| 350 nM | 2.86 nM |  | O=C(NO)c1ccc(C(=O)N[C@@H]2CCCc3ccccc32)s1 [Example 2n, (R)-thiophene-2,5-dicarboxylic acid 2-hydroxyamide 5-[(1,2,3,4-tetrahydro-naphthalen-1-yl)-amide]] |
| 560 nM | 2.6 nM |  | COc1ccc([C@H](C)NC(=O)c2ccc(C(=O)NO)s2)cc1 [Example 4i, (S)-thiophene-2,5-dicarboxylic acid 2-hydroxyamide 5-{[1-(4-methoxy-phenyl)-ethyl]-amide}] |
|  |  | 880 nM | C[C@H](NC(=O)c1ccc(C(=O)NO)s1)c1ccc(Br)cc1 [Example 4d, (S)-thiophene-2,5-dicarboxylic acid 2-{[1-(4-bromo-phenyl)-ethyl]-amide}5-hydroxyamide] |
| 780 nM | 3.19 nM |  | CC[C@H](NC(=O)c1ccc(C(=O)NO)s1)c1ccccc1 [Example 4g, (S)-thiophene-2,5-dicarboxylic acid 2-hydroxyamide 5-[(1-phenyl-propyl)-amide]] |
| 50 nM | 3.44 nM |  | C[C@@H](NC(=O)c1ccc(C(=O)NO)s1)c1ccc(Cl)cc1 [Example 2c, (R)-thiophene-2,5-dicarboxylic acid 2-{[1-(4-chloro-phenyl)-ethyl]-amide}5-hydroxyamide] |
| 520 nM | 3.82 nM |  | C[C@H](NC(=O)c1ccc(C(=O)NO)s1)c1cccs1 [Example 9, (S)-Thiophene-2,5-dicarboxylic Acid 2-hydroxyamide 5-[(1-thiophen-2-yl-ethyl)-amide]] |
| 60 nM | 1.66 nM |  | C[C@@H](NC(=O)c1ccc(C(=O)NO)s1)c1cccs1 [Example 7, (R)-Thiophene-2,5-dicarboxylic Acid 2-hydroxyamide 5-[(1-thiophen-2-yl-ethyl)-amide]] |
| 350 nM | 2.69 nM |  | C[C@H](NC(=O)c1ccc(C(=O)NO)s1)c1ccc(C(F)(F)F)cc1 [Example 10d, (S)-thiophene-2,5-dicarboxylic acid 2-hydroxyamide 5-{[1-(4-trifluoromethyl-phenyl)-ethyl]-amide}] |
| 580 nM | 1.39 nM |  | C[C@H](NC(=O)c1ccc(C(=O)NO)s1)c1ccc(C(C)(C)C)cc1 [Example 10e, (S)-thiophene-2,5-dicarboxylic acid 2-{[1-(4-tert-butyl-phenyl)-ethyl]-amide}5-hydroxyamide] |
|  | 2.97 nM |  | O=C(NO)c1ccc(C(=O)N[C@H]2CCc3ccccc32)s1 [Example 4m, (S)-thiophene-2,5-dicarboxylic acid 2-hydroxyamide 5-indan-1-ylamide] |
| 40 nM | 1.33 nM |  | O=C(NO)c1ccc(C(=O)N[C@H](Cc2ccccc2)c2ccccc2)s1 [Example 8f, (R)-thiophene-2,5-dicarboxylic acid 2-[(1,2-diphenyl-ethyl)-amide]5-hydroxyamide] |
| 580 nM | 3.17 nM |  | COC[C@H](NC(=O)c1ccc(C(=O)NO)s1)c1ccccc1 [Example 2l, (R)-thiophene-2,5-dicarboxylic acid 2-hydroxyamide 5-[(2-methoxy-1-phenyl-ethyl)-amide]] |
| 30 nM | 1.26 nM |  | C[C@@H](NC(=O)c1ccc(C(=O)NO)s1)c1ccc(C(F)(F)F)cc1 [Example 8d, (R)-thiophene-2,5-dicarboxylic acid 2-hydroxyamide 5-{[1-(4-trifluoromethyl-phenyl)-ethyl]-amide}] |
